{"source": "patent US5776734A", "about": "“DNA encoding the β subunit of a mammalian maxi-K potassium channel” (Merck & Co., Inc., priority 1996, dated 1998)", "key": {"[1]": {"target": "T1, purified maxi-K channel from bovine tracheal smooth muscle (Bos taurus, UniProt Q28067+Q28204)", "T1 construct": "Purified sarcolemmal membrane vesicles derived from bovine tracheal smooth muscle; from tissue; host or cells: bovine tracheal smooth muscle sarcolemmal membranes", "T1 sequence (Q28204 whole entry)": "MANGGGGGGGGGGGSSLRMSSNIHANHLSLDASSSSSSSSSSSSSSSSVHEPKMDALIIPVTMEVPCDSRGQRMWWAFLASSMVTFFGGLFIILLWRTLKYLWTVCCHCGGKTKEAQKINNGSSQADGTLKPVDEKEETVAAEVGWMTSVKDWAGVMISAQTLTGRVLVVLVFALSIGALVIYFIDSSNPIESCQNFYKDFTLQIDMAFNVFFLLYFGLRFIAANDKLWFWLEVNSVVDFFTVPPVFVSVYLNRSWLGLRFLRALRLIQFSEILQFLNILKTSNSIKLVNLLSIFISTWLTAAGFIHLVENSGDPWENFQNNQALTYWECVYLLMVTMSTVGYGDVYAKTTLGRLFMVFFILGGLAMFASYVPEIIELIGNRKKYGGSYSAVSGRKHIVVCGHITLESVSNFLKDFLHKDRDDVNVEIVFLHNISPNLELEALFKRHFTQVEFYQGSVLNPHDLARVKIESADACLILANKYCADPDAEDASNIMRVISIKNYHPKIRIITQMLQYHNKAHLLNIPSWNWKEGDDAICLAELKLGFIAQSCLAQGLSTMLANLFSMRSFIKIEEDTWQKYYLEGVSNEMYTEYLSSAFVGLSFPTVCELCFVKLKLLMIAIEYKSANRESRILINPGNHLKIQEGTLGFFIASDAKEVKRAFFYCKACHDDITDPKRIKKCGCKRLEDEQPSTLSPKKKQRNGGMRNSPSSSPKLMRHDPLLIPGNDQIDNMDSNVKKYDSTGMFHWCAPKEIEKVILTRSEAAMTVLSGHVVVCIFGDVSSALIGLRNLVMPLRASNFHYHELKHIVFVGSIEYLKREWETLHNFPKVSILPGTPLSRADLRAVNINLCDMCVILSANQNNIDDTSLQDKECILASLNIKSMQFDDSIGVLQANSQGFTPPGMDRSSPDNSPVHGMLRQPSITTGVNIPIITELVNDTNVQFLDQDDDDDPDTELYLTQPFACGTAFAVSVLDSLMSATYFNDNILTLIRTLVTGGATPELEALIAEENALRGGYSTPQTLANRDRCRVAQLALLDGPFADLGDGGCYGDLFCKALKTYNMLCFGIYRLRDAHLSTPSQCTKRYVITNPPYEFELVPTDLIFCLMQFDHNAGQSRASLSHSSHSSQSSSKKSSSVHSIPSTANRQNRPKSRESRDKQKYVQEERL", "T1 sequence (Q28067 2-191)": "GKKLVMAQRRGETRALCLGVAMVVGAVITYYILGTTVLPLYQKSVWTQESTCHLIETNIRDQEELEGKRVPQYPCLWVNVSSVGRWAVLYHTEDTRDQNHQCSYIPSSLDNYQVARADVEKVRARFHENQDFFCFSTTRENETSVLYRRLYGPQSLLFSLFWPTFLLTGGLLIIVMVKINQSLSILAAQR", "experiment": "[125I]ChTX binding to purified maxi-K channel (ChTX receptor)", "conditions": "for inhibition of 125I-ChTX binding to the purified maxi-K channel: in a manner similar to native tissue channels", "procedure": "Purified sarcolemmal membrane vesicles derived from bovine tracheal smooth muscle were prepared as previously described (Slaughter, R. S., Shevell, J. L., Felix, J. P., Garcia, M. L., and Kaczorowski, G. J., Biochemistry 28, 3995-4002 (1989)). The interaction of [^125 I]ChTX (New England Nuclear Corporation) with maxi-K channels in bovine tracheal sarcolemmal membrane vesicles was monitored as outlined previously (Vazquez, J., Feigenbaum, P., Katz, G., King, V. F., Reuben, J. P., Roy-Contancin, L., Slaughter, R. S., Kaczorowski, G. J., and Garcia, M. L., J. Biol. Chem. 264, 20902-20909 (1989)). Binding of radiolabeled toxin to solubilized channels was measured by incubating aliquots of solubilized material in 0.05% digitonin with [^125 I]ChTX as described (Garcia-Calvo, M., Vazquez, J., Smith, M., Kaczorowski, G. J., and Garcia, M. L. Biochemistry 30, 11157-11164 (1991)). At the end of the incubation period, protein was precipitated by addition of 10% (w/v) PEG (Mw~8000) in the presence of […] and the precipitate was immediately collected onto GF/C glass fiber filters (Whatman) that had been presoaked in 0.5% polyethylenimine. Nonspecific binding was determined in the presence of 10 nM ChTX (Peninsula Laboratories). For each experiment, triplicate assays were routinely performed, and the data were averaged. The standard error of the mean of these replicates was typically less than 3%."}, "[2]": {"target": "T2, 31,000 component (β subunit) of purified ChTX receptor (Bos taurus, UniProt Q28067+Q28204)", "T2 construct": "Purified sarcolemmal membrane vesicles derived from bovine tracheal smooth muscle; from tissue; host or cells: bovine tracheal smooth muscle sarcolemmal membranes", "T2 sequence (Q28204 whole entry)": "as the sequence (Q28204 whole entry) above", "T2 sequence (Q28067 2-191)": "as the sequence (Q28067 2-191) above", "experiment": "Covalent crosslinking of [125I]ChTX to purified receptor with disuccinimidyl suberate, SDS-PAGE", "type": "binding, bovine", "conditions": "in the presence of disuccinimidyl suberate", "procedure": "Fractions from the last sucrose density gradient centrifugation containing 31-158 ng of protein were dialyzed against 10 mM Na-borate, pH 9.0, 0.05% Triton X-100 and then reacted with 3.5 mCi of [^125 I]Bolton-Hunter reagent (2200 Ci/mmol; New England Nuclear Corporation) for 15 min on ice. The reaction was quenched by addition of Tris-HCl, pH 7.4 to a final concentration of 100 mM. Covalent incorporation of [^125 I]ChTX into the purified receptor was accomplished with the bifunctional reagent, disuccinimidyl suberate as previously described for crosslinking ChTX to its receptor in membranes (Garcia-Calvo, M., Vazquez, J., Smith, M., Kaczorowski, G. J., and Garcia, M. L. (1991) Biochemistry 30, 11157-11164). Briefly, the purified receptor preparation was incubated with 130 pM [^125 I]ChTX in 10 mM NaCl, 10 mM Taps-NaOH, pH 9.0, 0.1% digitonin, in the absence or presence of unlabeled ChTX, for two hours at room temperature. The solution was then adjusted to 0.2M NaCl and disuccinimidyl suberate was added to a final concentration of 0.18 mM. After incubation at room temperature for 1 min, the reaction was stopped by addition of Tris-HCl, pH 7.4 to a final concentration of 200 mM. Samples were dialyzed against 10 mM Tris-HCl, pH 7.4, 0.05% digitonin, concentrated 10 fold, and subjected to SDS-PAGE. […]"}, "[3]": {"tested_on": "maxi-K channel α and β subunits coexpressed in Xenopus oocytes", "sequence (Q08460 66-642 limits assumed)": "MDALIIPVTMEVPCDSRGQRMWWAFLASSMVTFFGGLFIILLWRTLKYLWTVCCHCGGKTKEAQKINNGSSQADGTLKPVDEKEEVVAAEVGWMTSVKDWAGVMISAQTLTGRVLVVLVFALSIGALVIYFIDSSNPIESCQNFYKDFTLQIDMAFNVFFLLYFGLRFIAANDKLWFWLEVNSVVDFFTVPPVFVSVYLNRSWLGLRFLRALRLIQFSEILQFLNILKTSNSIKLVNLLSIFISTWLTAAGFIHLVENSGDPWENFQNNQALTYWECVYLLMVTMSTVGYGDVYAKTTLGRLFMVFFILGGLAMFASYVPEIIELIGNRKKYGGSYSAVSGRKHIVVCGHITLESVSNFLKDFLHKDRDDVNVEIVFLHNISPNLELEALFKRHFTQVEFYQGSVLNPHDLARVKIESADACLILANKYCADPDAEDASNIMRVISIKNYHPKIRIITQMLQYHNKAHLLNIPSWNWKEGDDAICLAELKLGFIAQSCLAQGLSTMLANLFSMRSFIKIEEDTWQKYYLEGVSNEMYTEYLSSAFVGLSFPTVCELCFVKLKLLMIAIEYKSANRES", "sequence (as listed by the source)": "as the sequence (Q28067 2-191) above", "experiment": "Two-electrode voltage clamp of Xenopus oocytes injected with α and β subunit cRNAs", "type": "cell-based, mouse α subunit, bovine β subunit", "conditions": "oocytes injected with both α and β subunit cRNAs", "source_text": "(§1) cDNAs encoding both the α and β subunits were used as templates for the production of cRNA. The α subunit cDNA was obtained from Leo Pallanck (Univ. of Wisconsin) and consisted of a full-length mouse brain cDNA (mslo19; GenBank Accession #U09383) in an RNA transcription vector, pGH. […] We therefore used standard techniques to modify the mslo19 cDNA, specifically by deleting the 5' non-coding sequence (bases 1 to 940), and replacing that sequence with a consensus eukaryotic translation initiation sequence: 5'-GCCGCCACC-3'. […] A fragment of the β subunit cDNA, including the entire open reading frame, was subcloned into a pGEM (Promega, inc.) vector for cRNA transcription. The cRNAs encoding both the α and β subunits were transcribed using the appropriate RNA polymerase as determined by the transcription vector (T7 for α, and SP6 for β) and capped in vitro using a kit (mCAP; Stratagene, inc), purified by size-exclusion chromatography using sepahadex G-50 spin columns (Bio-Rad, inc.), and analyzed for purity and length by agarose/formaldehyde gel electrophoresis according to established procedures. […]\n(§2) Currents were recorded from Xenopus oocytes using two-electrode voltage-clamp methods to record currents from the entire oocyte and patch-clamp methods to record current from small patches of membrane excised from the oocytes. […]"}, "[4]": {"tested_on": "maxi-K channel α subunit (mslo19) expressed in Xenopus oocytes", "sequence (Q08460 66-642 limits assumed)": "as the sequence (Q08460 66-642 limits assumed) above", "experiment": "Two-electrode voltage clamp of Xenopus oocytes injected with α subunit cRNA alone", "type": "cell-based, mouse", "conditions": "for block of outward potassium currents: no concentration given; for block of outward currents in whole-oocyte voltage clamp: toxin at 10 to 30 nM", "source_text": "cDNAs encoding both the α and β subunits were used as templates for the production of cRNA. The α subunit cDNA was obtained from Leo Pallanck (Univ. of Wisconsin) and consisted of a full-length mouse brain cDNA (mslo19; GenBank Accession #U09383) in an RNA transcription vector, pGH. […] We therefore used standard techniques to modify the mslo19 cDNA, specifically by deleting the 5' non-coding sequence (bases 1 to 940), and replacing that sequence with a consensus eukaryotic translation initiation sequence: 5'-GCCGCCACC-3'. […] A fragment of the β subunit cDNA, including the entire open reading frame, was subcloned into a pGEM (Promega, inc.) vector for cRNA transcription. The cRNAs encoding both the α and β subunits were transcribed using the appropriate RNA polymerase as determined by the transcription vector (T7 for α, and SP6 for β) and capped in vitro using a kit (mCAP; Stratagene, inc), purified by size-exclusion chromatography using sepahadex G-50 spin columns (Bio-Rad, inc.), and analyzed for purity and length by agarose/formaldehyde gel electrophoresis according to established procedures. Following ethanol precipitation, cRNAs were resuspended in sterile, DEPC-treated water at a concentration of 0.1 to 1 μg/μl, and stored in 2 μl aliquots at […].\nInjection of mRNA or cRNA into Xenopus oocytes was done by a modification of established protocols (A. Coleman, Transcription and Translation: A Practical Approach. B. D. Hanes, S. J. Higgins, Eds., 1984); Y. Masu, et al., Nature 329, 836-838 (1987)). Oocytes were surgically removed from 0.17% tricaine anesthetized Xenopus laevis (Xenopus One). The excised ovarian lobes were teased apart with jeweler's forceps and then placed into OR-2 (82.5 mM NaCl, 2 mM KCl, 1 mM MgCl2, 5 mM HEPES, pH 7.4) containing 2 mg/ml collagenase β (Boehringer Mannhiem) for 2 hours at room temperature with a change of the buffer at 1 hour. Isolated oocytes were repeatedly washed in OR-2 until the supernatant remained clear. Stage 5 and 6 oocytes were selected and cultured overnight in supplemented OR-2 (OR-2 containing 1.8 mM CaCl2 and 0.5 mg/ml gentamycin. Oocytes were injected with 46 nl of RNA at a concentration of 0.1 to 1.0 mg/ml in H2 O. RNA was injected using a Nanoject automatic oocyte injector (Drummond Scientific) and injection needles were pulled from 3.5\" Drummond capillaries using a Micropipette puller (Kopf Instruments).\nas §2, with “oocytes. Recordings were done at room temperature and were performed 1 to 30 days after injection.” for “oocytes.”"}, "[5]": {"target": "maxi-K channel α subunit (mslo19) expressed in Xenopus oocytes (Mus musculus, UniProt Q08460)", "sequence (Q08460 whole entry)": "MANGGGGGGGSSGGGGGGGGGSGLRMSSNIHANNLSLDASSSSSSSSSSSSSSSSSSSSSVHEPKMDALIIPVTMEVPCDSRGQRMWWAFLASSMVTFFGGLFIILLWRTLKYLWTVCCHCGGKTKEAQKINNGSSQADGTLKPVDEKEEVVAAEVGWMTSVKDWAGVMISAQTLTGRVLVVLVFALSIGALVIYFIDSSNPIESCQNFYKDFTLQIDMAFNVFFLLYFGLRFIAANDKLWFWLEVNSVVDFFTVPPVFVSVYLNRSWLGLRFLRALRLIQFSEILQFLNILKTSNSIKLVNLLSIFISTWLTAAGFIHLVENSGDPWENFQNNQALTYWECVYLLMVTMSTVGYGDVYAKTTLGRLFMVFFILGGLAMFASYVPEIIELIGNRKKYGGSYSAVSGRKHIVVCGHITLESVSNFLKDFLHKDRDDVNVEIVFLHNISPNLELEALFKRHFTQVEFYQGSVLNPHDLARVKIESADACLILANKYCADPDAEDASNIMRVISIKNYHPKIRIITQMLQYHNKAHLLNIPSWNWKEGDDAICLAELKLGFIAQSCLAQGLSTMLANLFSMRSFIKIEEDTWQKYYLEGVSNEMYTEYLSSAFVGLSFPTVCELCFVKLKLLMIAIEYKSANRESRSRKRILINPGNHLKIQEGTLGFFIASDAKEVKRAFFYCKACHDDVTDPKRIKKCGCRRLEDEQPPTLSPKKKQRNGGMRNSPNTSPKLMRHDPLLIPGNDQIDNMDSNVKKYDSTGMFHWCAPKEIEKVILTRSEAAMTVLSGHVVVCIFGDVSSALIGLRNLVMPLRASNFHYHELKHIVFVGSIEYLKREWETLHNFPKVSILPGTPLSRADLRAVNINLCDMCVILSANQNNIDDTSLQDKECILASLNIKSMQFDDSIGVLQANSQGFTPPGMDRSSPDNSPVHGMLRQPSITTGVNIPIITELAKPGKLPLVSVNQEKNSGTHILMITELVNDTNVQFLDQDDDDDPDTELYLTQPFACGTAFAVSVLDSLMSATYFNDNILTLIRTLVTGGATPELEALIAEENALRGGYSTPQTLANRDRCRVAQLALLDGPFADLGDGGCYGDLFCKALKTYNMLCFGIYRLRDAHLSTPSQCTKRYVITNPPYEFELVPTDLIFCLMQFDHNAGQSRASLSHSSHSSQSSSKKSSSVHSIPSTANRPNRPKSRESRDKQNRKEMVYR", "experiment": "Patch clamp of excised inside-out patches from oocytes injected with α subunit cRNA alone", "type": "cell-based", "conditions": "100-500 nM", "source_text": "as §1, §2"}, "[6]": {"target": "maxi-K channel α and β subunits coexpressed in Xenopus oocytes (UniProt Q08460+Q28067)", "sequence (Q08460 whole entry)": "as above", "sequence (Q28067 whole entry)": "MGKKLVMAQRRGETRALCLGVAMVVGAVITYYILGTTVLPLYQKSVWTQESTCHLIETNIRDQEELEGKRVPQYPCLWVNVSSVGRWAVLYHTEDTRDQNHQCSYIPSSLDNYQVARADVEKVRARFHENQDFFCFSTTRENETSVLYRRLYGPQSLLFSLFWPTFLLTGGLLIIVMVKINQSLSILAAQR", "experiment": "Patch clamp of excised inside-out patches from oocytes injected with α and β subunit cRNAs", "type": "cell-based, mouse α subunit, bovine β subunit", "conditions": "both subunits; 100-300 nM applied to the intracellular face of the channel", "source_text": "as §1, §2"}}, "data": [{"compound": "[Ba]", "note": "[barium]", "values": [{"measurement": "inhibition of 125I-ChTX binding to the purified maxi-K channel", "setting": "[1]", "value": "inhibited"}]}, {"compound": "[Cs]", "note": "[cesium]", "values": [{"measurement": "inhibition of 125I-ChTX binding to the purified maxi-K channel", "setting": "[1]", "value": "inhibited"}]}, {"compound": "[K+]", "note": "[potassium]", "values": [{"measurement": "effect on [125I]ChTX labeling of the 31,000 component", "setting": "[2]", "value": "abolished"}, {"measurement": "inhibition of 125I-ChTX binding to the purified maxi-K channel", "setting": "[1]", "value": "inhibited"}]}, {"compound": "^125 I-ChTX: radiolabeled toxin (New England Nuclear Corporation)", "values": [{"measurement": "binding affinity for the purified channel compared with the native maxi-K channel", "setting": "[1]; purified channel from bovine tracheal smooth muscle", "value": "similar"}]}, {"compound": "charybdotoxin [ChTX]", "values": [{"measurement": "block of outward potassium currents", "setting": "[3]", "value": "blocked"}, {"measurement": "block of outward potassium currents", "setting": "[4]", "value": "blocked"}, {"measurement": "block of outward currents in whole-oocyte voltage clamp", "setting": "[4]", "value": "blocked"}, {"measurement": "inhibition of 125I-ChTX binding to the purified maxi-K channel", "setting": "[1]", "value": "inhibited"}]}, {"compound": "dehydrosoyasaponin I [DHS-I]", "values": [{"measurement": "effect on channel open probability / patch currents", "setting": "[5]", "value": "not increased"}, {"measurement": "channel activation", "setting": "[6]", "value": "fully activated"}]}, {"compound": "iberiotoxin (QFTDVDCSVSKECWSVCKDLFGVDRGKCMGKKCRCYQ) [IbTX]", "values": [{"measurement": "block of outward potassium currents", "setting": "[3]", "value": "blocked"}, {"measurement": "block of outward potassium currents", "setting": "[4]", "value": "blocked"}, {"measurement": "block of outward currents in whole-oocyte voltage clamp", "setting": "[4]", "value": "blocked"}, {"measurement": "effect on [125I]ChTX labeling of the 31,000 component", "setting": "[2]", "value": "abolished"}, {"measurement": "inhibition of 125I-ChTX binding to the purified maxi-K channel", "setting": "[1]", "value": "inhibited"}]}, {"compound": "limbatustoxin [LbTX]", "values": [{"measurement": "inhibition of 125I-ChTX binding to the purified maxi-K channel", "setting": "[1]", "value": "inhibited"}]}]}
